Where two headings read alike, the source gives them in different places.
Legend:
human TLR8 = biological target: T1, human TLR8 (Homo sapiens, UniProt Q9NR97); assay: HEK-Blue hTLR8 SEAP reporter gene inhibition assay; type: cell-based
T1 construct: expressed in transfected cells
T1 sequence (Q9NR97 27-1041): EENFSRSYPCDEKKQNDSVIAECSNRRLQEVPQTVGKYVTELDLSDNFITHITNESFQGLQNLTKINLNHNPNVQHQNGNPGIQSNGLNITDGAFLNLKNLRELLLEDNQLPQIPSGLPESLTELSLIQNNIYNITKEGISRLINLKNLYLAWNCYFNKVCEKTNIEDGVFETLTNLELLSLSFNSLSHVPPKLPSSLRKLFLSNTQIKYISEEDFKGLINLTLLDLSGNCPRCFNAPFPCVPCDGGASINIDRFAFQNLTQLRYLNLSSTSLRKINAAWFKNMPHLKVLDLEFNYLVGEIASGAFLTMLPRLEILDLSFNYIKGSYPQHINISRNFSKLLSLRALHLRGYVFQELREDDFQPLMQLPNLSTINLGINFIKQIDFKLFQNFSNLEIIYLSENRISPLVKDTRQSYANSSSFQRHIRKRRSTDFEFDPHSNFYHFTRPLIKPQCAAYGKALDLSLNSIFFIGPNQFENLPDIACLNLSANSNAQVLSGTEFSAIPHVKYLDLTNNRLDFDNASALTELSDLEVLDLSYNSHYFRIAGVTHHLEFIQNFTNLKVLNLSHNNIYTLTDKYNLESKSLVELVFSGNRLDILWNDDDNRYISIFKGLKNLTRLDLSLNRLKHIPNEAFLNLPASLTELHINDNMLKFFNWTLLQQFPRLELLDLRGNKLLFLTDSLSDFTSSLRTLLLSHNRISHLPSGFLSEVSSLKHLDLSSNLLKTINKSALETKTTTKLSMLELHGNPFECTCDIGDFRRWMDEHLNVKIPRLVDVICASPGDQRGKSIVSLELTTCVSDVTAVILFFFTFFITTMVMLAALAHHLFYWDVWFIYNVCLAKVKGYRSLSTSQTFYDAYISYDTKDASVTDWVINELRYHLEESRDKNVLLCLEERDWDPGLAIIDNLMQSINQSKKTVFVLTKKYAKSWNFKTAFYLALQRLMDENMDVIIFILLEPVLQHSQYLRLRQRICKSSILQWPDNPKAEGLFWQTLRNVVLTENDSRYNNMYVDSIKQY
Summary of the method: (§1)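 SEAP read-out by Quanti-Blue after 20 h stimulation gave IC50 values. Stable hTLR7 or hTLR8 HEK-Blue cells were pretreated 15 min with compound at 0.001–36 µM final, then stimulated with 10 µM Gardiquimod (TLR7) or 10 µM TLR8 ligand.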

human TLR7 = biological target: T2, human TLR7 (Homo sapiens, UniProt Q9NYK1); assay: HEK-Blue hTLR7 SEAP reporter gene inhibition assay; type: cell-based
T2 sequence (Q9NYK1 27-1049): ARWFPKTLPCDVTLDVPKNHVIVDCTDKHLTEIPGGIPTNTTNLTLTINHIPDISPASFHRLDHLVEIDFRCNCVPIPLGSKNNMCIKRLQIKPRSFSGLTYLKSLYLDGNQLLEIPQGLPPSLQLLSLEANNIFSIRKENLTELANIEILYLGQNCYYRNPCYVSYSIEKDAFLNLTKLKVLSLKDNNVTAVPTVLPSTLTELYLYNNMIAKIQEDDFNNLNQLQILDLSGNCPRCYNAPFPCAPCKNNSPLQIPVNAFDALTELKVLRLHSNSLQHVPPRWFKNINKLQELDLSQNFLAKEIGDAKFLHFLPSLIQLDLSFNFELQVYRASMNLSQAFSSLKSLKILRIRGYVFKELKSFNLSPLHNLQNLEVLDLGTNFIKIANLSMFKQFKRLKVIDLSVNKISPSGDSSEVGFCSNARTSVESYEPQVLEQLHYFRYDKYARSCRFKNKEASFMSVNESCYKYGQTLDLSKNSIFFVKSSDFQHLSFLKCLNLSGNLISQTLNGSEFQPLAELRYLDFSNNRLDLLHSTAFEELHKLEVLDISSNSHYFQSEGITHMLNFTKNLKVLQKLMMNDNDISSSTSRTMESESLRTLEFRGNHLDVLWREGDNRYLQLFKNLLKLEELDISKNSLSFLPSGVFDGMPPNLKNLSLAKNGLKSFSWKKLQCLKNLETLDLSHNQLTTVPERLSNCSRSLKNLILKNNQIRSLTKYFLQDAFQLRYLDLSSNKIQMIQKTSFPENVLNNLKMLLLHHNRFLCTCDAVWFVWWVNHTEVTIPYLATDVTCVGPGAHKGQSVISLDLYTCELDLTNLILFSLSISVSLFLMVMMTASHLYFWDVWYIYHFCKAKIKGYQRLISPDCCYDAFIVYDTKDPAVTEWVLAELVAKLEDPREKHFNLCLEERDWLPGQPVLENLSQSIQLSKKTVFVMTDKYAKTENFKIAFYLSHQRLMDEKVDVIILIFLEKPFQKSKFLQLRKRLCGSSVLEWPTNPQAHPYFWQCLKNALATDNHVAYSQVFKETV
Summary of the method: as §1

[1] = hTLR8 HEK-Blue cells, TLR8 ligand 10 µM, 20 hours, SEAP by Quanti-blue, class symbols, read-out: HEK-Blue hTLR8 IC50
[2] = hTLR7 HEK-Blue cells, TLR7 ligand Gardiquimod 10 µM, 20 hours, SEAP by Quanti-blue, class symbols, read-out: HEK-Blue hTLR7 IC50

SMILES | IC50 (human TLR8; [1]) | IC50 (human TLR7; [2]) | also measured
C[C@@H]1CN(c2ccc(C#N)n3ncc(F)c23)Cc2c3c(nn21)CN(CCC#N)[C@@H](C)C3 [Example I-129, 4-((4R,9S)-8-(2-cyanoethyl)-4,9-dimethyl-3,4,7,8,9,10-hexahydropyridine[3',4':3,4]pyrazole[1,5-a]pyrazine-2 (1 H)-yl)-3-fluoropyrazole [1,5-a] pyridine-7-nitrile] |  |  | IC50 (human TLR8; HEK-Blue hTLR8 IC50 (µM)): < 0.1 µM; IC50 (human TLR7; HEK-Blue hTLR7 IC50 (µM)): < 0.05 µM
C[C@@H]1CN(c2ccc(C#N)c3ncccc23)Cc2c3c(nn21)CN[C@@H](C)C3 [Example I-132, 5-((4R,9S)-4,9-dimethyl-3,4,7,8,9,10-hexahydropyrido[3',4':3,4]pyrazolo[1,5-a]pyrazin-2(1H)-yl)quinoline-8-carbonitrile] | < 0.1 µM | < 0.05 µM | 
C[C@@H]1CN(c2ccc(C#N)n3ncc(F)c23)Cc2c3c(nn21)CN(Cc1ccn[nH]1)[C@@H](C)C3 [Example I-134, 4-((4R,9S)-8-((1H-pyrazol-5-yl)methyl)-4,9-dimethyl-3,4,7,8,9,10-hexahydropyrido[3',4':3,4]pyrazolo[1,5-a]pyrazin-2(1H)-yl)-3-fluoropyrazolo[1,5-a]pyridine-7-carbonitrile] |  |  | IC50 (human TLR8; read-out: HEK-Blue hTLR8 IC50): < 0.1 µM; IC50 (human TLR7; read-out: HEK-Blue hTLR7 IC50): < 0.05 µM
C[C@@H]1CN(c2ccc(C#N)n3ncc(F)c23)Cc2c3c(nn21)CN(C1CC2(COC2)C1)[C@@H](C)C3 [Example I-135] |  |  | IC50 (human TLR8; HEK-Blue hTLR8 IC50 (µM)): < 0.1 µM; IC50 (human TLR7; HEK-Blue hTLR7 IC50 (µM)): < 0.05 µM
C[C@@H]1CN(c2ccc(C#N)n3ncc(F)c23)Cc2c3c(nn21)CN(CC(=O)N1CCN(C2CC2)CC1)[C@@H](C)C3 [Example I-136, 4-((4R,9S)-8-(2-(4-cyclopropylpiperazin-1-yl)-2-oxoethyl)-4,9-dimethyl-3,4,7,8,9,10-hexahydropyrido[3',4':3,4]pyrazolo[1,5-a]pyrazin-2(1H)-yl)-3-fluoropyrazolo[1,5-a]pyridine-7-carbonitrile] | < 0.1 µM | < 0.05 µM | 
C[C@@H]1CN(c2ccc(C#N)n3ncc(F)c23)Cc2c3c(nn21)CN(Cc1cn[nH]c1)[C@@H](C)C3 [Example I-137, 4-((4R,9S)-8-((1H-pyrazol-4-yl)methyl)-4,9-dimethyl-3,4,7,8,9,10-hexahydropyrido [3',4':3,4]pyrazolo[1,5-a]pyrazin-2(1H)-yl)-3-fluoropyrazolo[1,5-a]pyridine-7-carbonitrile] | < 0.1 µM | < 0.05 µM | 
C[C@@H]1CN(c2ccc(C#N)n3ncc(F)c23)Cc2c3c(nn21)CN(CC(=O)N1CCC1)[C@@H](C)C3 [Example I-138, 4-((4R,9S)-8-(2-(azetidin-1-yl)-2-oxoethyl)-4,9-dimethyl-3,4,7,8,9,10-hexahydropyrido [3',4':3,4]pyrazolo[1,5-a]pyrazin-2(1H)-yl)-3-fluoropyrazolo[1,5-a]pyridine-7-carbonitrile] |  |  | IC50 (human TLR8; read-out: HEK-Blue hTLR8 IC50): > 0.1 µM; IC50 (human TLR7; read-out: HEK-Blue hTLR7 IC50): < 0.05 µM
C[C@@H]1CN(c2ccc(C#N)n3ncc(F)c23)Cc2c3c(nn21)CN(CC(=O)N1CCOCC1)[C@@H](C)C3 [Example I-139, 4-((4R,9S)-4,9-dimethyl-8-(2-morpholino-2-oxoethyl)-3,4,7,8,9,10-hexahydropyrido [3',4':3,4]pyrazolo[1,5-a]pyrazin-2(1H)-yl)-3-fluoropyrazolo[1,5-a]pyridine-7-carbonitrile] | > 0.1 µM | < 0.05 µM | 
C[C@@H]1CN(c2ccc(C#N)n3ncc(F)c23)Cc2c3c(nn21)CN(CC(=O)N1CC(F)(F)C1)[C@@H](C)C3 [Example I-140, 4-((4R,9S)-8-(2-(3,3-difluoroazetidin-1-yl)-2-oxoethyl)-4,9-dimethyl-3,4,7,8,9,10-hexahydropyrido[3',4':3,4]pyrazolo[1,5-a]pyrazin-2(1H)-yl)-3-fluoropyrazolo[1,5-a]pyridine-7-carbonitrile] | > 0.1 µM | < 0.05 µM | 
C[C@@H]1CN(c2ccc(C#N)c3ncccc23)Cc2c3c(nn21)CN(CC(N)=O)[C@@H](C)C3 [Example I-141, 2-((4R,9S)-2-(8-cyanoquinolin-5-yl)-4,9-dimethyl-1,2,3,4,9,10-hexahydropyrido [3',4':3,4]pyrazolo[1,5-a]pyrazin-8(7H)-yl)acetamide] | > 0.1 µM | > 0.05 µM | 
C[C@@H]1CN(c2ccc(C#N)n3ncc(F)c23)Cc2c3c(nn21)CN(C1CCOC1)[C@@H](C)C3 (stereo partly drawn) [Example I-142, 4-((4R,9S)-4,9-dimethyl-8-(tetrahydrofuran-3-yl)-3,4,7,8,9,10-hexahydropyrido [3',4':3,4]pyrazolo[1,5-a]pyrazin-2(1H)-yl)-3-fluoropyrazolo[1,5-a]pyridine-7-carbonitrile] | > 0.1 µM | < 0.05 µM | 
C[C@@H]1CN(c2ccc(C#N)n3ncc(F)c23)Cc2c3c(nn21)CN(CC(=O)N1C[C@H](C)N[C@@H](C)C1)[C@@H](C)C3 [Example I-144, 4-((4R,9S)-8-(2-((3S,5S)-3,5-dimethylpiperazin-1-yl)-2-oxoethyl)-4,9-dimethyl-3,4,7,8,9,10-hexahydropyrido[3',4':3,4]pyrazolo[1,5-a]pyrazin-2(1H)-yl)-3-fluoropyrazolo[1,5-a]pyridine-7-carbonitrile] | > 0.1 µM | < 0.05 µM | 
C[C@@H]1CN(C(=O)CN2Cc3nn4c(c3C[C@@H]2C)CN(c2ccc(C#N)n3ncc(F)c23)C[C@H]4C)C[C@@H](C)N1 [Example I-146, 4-((4R,9S)-8-(2-((3R,5R)-3,5-dimethylpiperazin-1-yl)-2-oxoethyl)-4,9-dimethyl-3,4,7,8,9,10-hexahydropyrido[3',4':3,4]pyrazolo[1,5-a]pyrazin-2(1H)-yl)-3-fluoropyrazolo[1,5-a]pyridine-7-carbonitrile] | > 0.1 µM | < 0.05 µM | 
C[C@@H]1CN(c2ccc(C#N)n3ncc(F)c23)Cc2c3c(nn21)CN(CC(=O)N1CCCC1)[C@@H](C)C3 [Example I-151, 4-((4R,9S)-4,9-dimethyl-8-(2-oxo-2-(pyrrolidin-1-yl)ethyl)-3,4,7,8,9,10-hexahydropyrido[3',4':3,4]pyrazolo[1,5-a]pyrazin-2(1H)-yl)-3-fluoropyrazolo[1,5-a]pyridine-7-carbonitrile] | > 0.1 µM | < 0.05 µM | 
C[C@@H]1CN(c2ccc(C#N)n3ncc(F)c23)Cc2c3c(nn21)CN(CC(=O)N1CCC(F)(F)C1)[C@@H](C)C3 [Example I-152, 4-((4R,9S)-8-(2-(3,3-difluoropyrrolidin-1-yl)-2-oxoethyl)-4,9-dimethyl-3,4,7,8,9,10-hexahydropyrido[3',4':3,4]pyrazolo[1,5-a]pyrazin-2(1H)-yl)-3-fluoropyrazolo[1,5-a]pyridine-7-carbonitrile] | > 0.1 µM | < 0.05 µM | 
